≈ marks a conversion by molar mass, not a printed value.

Assay type in all cases: functional
One assay relates to Escherichia coli. The assay is described as follows: Antimicrobial activity against Escherichia coli ATCC 25922 after 16 to 22 hrs by broth microdilution method.
The subject of assay [1] is Streptococcus pneumoniae. As to the kind of experiment: Antimicrobial activity against macrolide-resistant erythromycin-Streptococcus pneumoniae after 16 to 22 hrs by broth microdilution method.
The subject of assay [2] is Streptococcus pyogenes. The assay is described as follows: Antimicrobial activity against macrolide-resistant erythromycin-Streptococcus pyogenes after 16 to 22 hrs by broth microdilution method.
The test system of the next assay is Enterococcus faecalis. As to the kind of experiment: Antimicrobial activity against Enterococcus faecalis ATCC 29212 after 16 to 22 hrs by broth microdilution method.
In assay [3] the test system is Streptococcus pyogenes. As to the kind of experiment: Antimicrobial activity against erythromycin-susceptible Streptococcus pyogenes after 16 to 22 hrs by broth microdilution method.
For another assay, the system named is Haemophilus influenzae. As to the kind of experiment: Antimicrobial activity against Haemophilus influenzae ATCC 49247 after 16 to 22 hrs by broth microdilution method.
In assay [4] the test system is Streptococcus pneumoniae. As to the kind of experiment: Antimicrobial activity against erythromycin-susceptible Streptococcus pneumoniae after 16 to 22 hrs by broth microdilution method.
The next assay concerns Staphylococcus aureus. As to the kind of experiment: Antimicrobial activity against Staphylococcus aureus ATCC 29213 after 16 to 22 hrs by broth microdilution method.
For the next assay, the system named is Moraxella catarrhalis. The assay is described as follows: Antimicrobial activity against Moraxella catarrhalis ATCC 23246 after 16 to 22 hrs by broth microdilution method.
[5] abbreviates: Escherichia coli, ATCC 25922, read-out: MIC.
[6] abbreviates: Streptococcus pneumoniae, read-out: MIC.
Setting [7] is: Streptococcus pyogenes, read-out: MIC.
The mark [8] stands for this setting: Haemophilus influenzae, ATCC 49247, read-out: MIC.
Setting [9] is: Staphylococcus aureus, ATCC 29213, read-out: MIC.

Turning to `CC[C@H]1OC(=O)[C@H](C)[C@@H](O)[C@H](C)[C@@H](O[C@@H]2O[C@H](C)C[C@H](N(C)C)[C@H]2O)[C@](C)(O)C[C@@H](C)CN(CCCNC(=O)Nc2cccc3ccccc23)[C@H](C)[C@@H](O)[C@]1(C)O`, the MIC in the assay with Escherichia coli (setting [5]) amounted to 8 µg/mL (≈ 9.96 µM); in the assay with Streptococcus pneumoniae [1] (setting [6]), 8 µg/mL (≈ 9.96 µM); with Streptococcus pyogenes [2] (setting [7]), 16 µg/mL (≈ 19.9 µM); in the assay on Enterococcus faecalis it was 32 µg/mL (≈ 39.8 µM); in the assay with Streptococcus pyogenes [3] (setting [7]) it was 2 µg/mL (≈ 2.49 µM); in the assay with Haemophilus influenzae (setting [8]) it was 2 µg/mL (≈ 2.49 µM). Moreover, the MIC is 1 µg/mL (≈ 1.25 µM) in the assay on Streptococcus pneumoniae [4] (setting [6]), more than 64 µg/mL in the assay with Staphylococcus aureus (setting [9]) and 2 µg/mL (≈ 2.49 µM) in the assay on Moraxella catarrhalis.

Turning to `CC[C@H]1OC(=O)[C@H](C)[C@@H](O)[C@H](C)[C@@H](O[C@@H]2O[C@H](C)C[C@H](N(C)C)[C@H]2O)[C@](C)(O)C[C@@H](C)CN(CCCNC(=S)Nc2cccc3ccccc23)[C@H](C)[C@@H](O)[C@]1(C)O`, the MIC in the assay with Escherichia coli (setting [5]) turned out to be 16 µg/mL (≈ 19.5 µM); with Streptococcus pneumoniae [1] (setting [6]), 2 µg/mL (≈ 2.44 µM); in the assay on Streptococcus pyogenes [2] (setting [7]) it was 64 µg/mL (≈ 78.1 µM); in the assay on Enterococcus faecalis, 32 µg/mL (≈ 39.1 µM); in the assay on Streptococcus pyogenes [3] (setting [7]) it was 8 µg/mL (≈ 9.77 µM); with Haemophilus influenzae (setting [8]), 4 µg/mL (≈ 4.88 µM). Further, the MIC with Streptococcus pneumoniae [4] (setting [6]) is 1 µg/mL (≈ 1.22 µM); in the assay with Staphylococcus aureus (setting [9]), more than 64 µg/mL; with Moraxella catarrhalis, 0.5 µg/mL (≈ 0.61 µM).

In the case of `CC[C@H]1OC(=O)[C@H](C)[C@@H](O)[C@H](C)[C@@H](O[C@@H]2O[C@H](C)C[C@H](N(C)C)[C@H]2O)[C@](C)(O)C[C@@H](C)CN(CCCNC(=S)NCCc2ccccc2)[C@H](C)[C@@H](O)[C@]1(C)O`, the MIC was 64 µg/mL (≈ 80.3 µM) in the assay on Escherichia coli (setting [5]); 16 µg/mL (≈ 20.1 µM) in the assay on Streptococcus pneumoniae [1] (setting [6]); 64 µg/mL (≈ 80.3 µM) in the assay with Streptococcus pyogenes [2] (setting [7]); 64 µg/mL (≈ 80.3 µM) in the assay on Enterococcus faecalis; 32 µg/mL (≈ 40.1 µM) with Streptococcus pyogenes [3] (setting [7]); 16 µg/mL (≈ 20.1 µM) in the assay on Haemophilus influenzae (setting [8]). The MIC in the assay with Streptococcus pneumoniae [4] (setting [6]) was 4 µg/mL (≈ 5.02 µM); with Staphylococcus aureus (setting [9]), more than 64 µg/mL; in the assay with Moraxella catarrhalis, 4 µg/mL (≈ 5.02 µM).

Regarding `CC[C@H]1OC(=O)[C@H](C)[C@@H](O)[C@H](C)[C@@H](O[C@@H]2O[C@H](C)C[C@H](N(C)C)[C@H]2O)[C@](C)(O)C[C@@H](C)CN(CCCN(CCC#N)C(=O)Nc2cccc3ccccc23)[C@H](C)[C@@H](O)[C@]1(C)O`, the MIC is 64 µg/mL (≈ 74.8 µM) in the assay on Escherichia coli (setting [5]); 64 µg/mL (≈ 74.8 µM) in the assay with Streptococcus pneumoniae [1] (setting [6]); 64 µg/mL (≈ 74.8 µM) in the assay on Streptococcus pyogenes [2] (setting [7]); more than 64 µg/mL in the assay with Enterococcus faecalis; 16 µg/mL (≈ 18.7 µM) in the assay on Streptococcus pyogenes [3] (setting [7]); 32 µg/mL (≈ 37.4 µM) in the assay with Haemophilus influenzae (setting [8]). The figures for the MIC in the assay with Streptococcus pneumoniae [4] (setting [6]), in the assay with Staphylococcus aureus (setting [9]) and in the assay on Moraxella catarrhalis were 16 µg/mL (≈ 18.7 µM), more than 64 µg/mL and 8 µg/mL (≈ 9.34 µM), respectively.

Take `CC[C@H]1OC(=O)[C@H](C)[C@@H](O)[C@H](C)[C@@H](O[C@@H]2O[C@H](C)C[C@H](N(C)C)[C@H]2O)[C@](C)(O)C[C@@H](C)CN(CCCN(CCC#N)C(=O)Nc2ccc3ccccc3c2)[C@H](C)[C@@H](O)[C@]1(C)O`: the MIC in the assay on Escherichia coli (setting [5]) came to 16 µg/mL (≈ 18.7 µM); in the assay with Streptococcus pneumoniae [1] (setting [6]), 4 µg/mL (≈ 4.67 µM); in the assay on Streptococcus pyogenes [2] (setting [7]) it was 16 µg/mL (≈ 18.7 µM); against Enterococcus faecalis, 32 µg/mL (≈ 37.4 µM); with Streptococcus pyogenes [3] (setting [7]), 8 µg/mL (≈ 9.34 µM); with Haemophilus influenzae (setting [8]), 2 µg/mL (≈ 2.34 µM). The MIC was more than 64 µg/mL in the assay with Staphylococcus aureus (setting [9]) and 2 µg/mL (≈ 2.34 µM) in the assay with Moraxella catarrhalis.

With `CC[C@H]1OC(=O)[C@H](C)[C@@H](O)[C@H](C)[C@@H](O[C@@H]2O[C@H](C)C[C@H](N(C)C)[C@H]2O)[C@](C)(O)C[C@@H](C)CN(CCCN(CCC#N)C(=O)Nc2ccc(Cl)cc2Cl)[C@H](C)[C@@H](O)[C@]1(C)O`, the MIC in the assay on Escherichia coli (setting [5]) was more than 64 µg/mL; in the assay with Streptococcus pneumoniae [1] (setting [6]) it was 8 µg/mL (≈ 9.14 µM); in the assay with Enterococcus faecalis it was more than 64 µg/mL; in the assay on Streptococcus pyogenes [3] (setting [7]), more than 64 µg/mL; in the assay with Haemophilus influenzae (setting [8]), 16 µg/mL (≈ 18.3 µM); in the assay on Staphylococcus aureus (setting [9]), more than 64 µg/mL. Besides, in the assay with Moraxella catarrhalis, the MIC worked out at 8 µg/mL (≈ 9.14 µM).

Take `CC[C@H]1OC(=O)[C@H](C)[C@@H](O)[C@H](C)[C@@H](O[C@@H]2O[C@H](C)C[C@H](N(C)C)[C@H]2O)[C@](C)(O)C[C@@H](C)CN(CCCN(CCC#N)C(=S)NCc2ccccc2)[C@H](C)[C@@H](O)[C@]1(C)O`: the MIC is more than 64 µg/mL in the assay on Escherichia coli (setting [5]); 16 µg/mL (≈ 19.1 µM) with Streptococcus pneumoniae [1] (setting [6]); more than 64 µg/mL in the assay with Enterococcus faecalis; more than 64 µg/mL with Streptococcus pyogenes [3] (setting [7]); 8 µg/mL (≈ 9.57 µM) in the assay with Haemophilus influenzae (setting [8]); more than 64 µg/mL in the assay on Staphylococcus aureus (setting [9]). This compound returned an MIC in the assay with Moraxella catarrhalis of 2 µg/mL (≈ 2.39 µM).

`CC[C@H]1OC(=O)[C@H](C)[C@@H](O)[C@H](C)[C@@H](O[C@@H]2O[C@H](C)C[C@H](N(C)C)[C@H]2O)[C@](C)(O)C[C@@H](C)CN(CCCN(CCC#N)C(=S)NCCc2ccccc2)[C@H](C)[C@@H](O)[C@]1(C)O`: the MIC in the assay on Escherichia coli (setting [5]) was more than 64 µg/mL; in the assay on Streptococcus pneumoniae [1] (setting [6]) it was 16 µg/mL (≈ 18.8 µM); in the assay on Enterococcus faecalis, more than 64 µg/mL; with Streptococcus pyogenes [3] (setting [7]), more than 64 µg/mL; in the assay on Haemophilus influenzae (setting [8]) it was 32 µg/mL (≈ 37.6 µM); in the assay on Staphylococcus aureus (setting [9]), more than 64 µg/mL. In the assay with Moraxella catarrhalis, this compound displayed an MIC of 8 µg/mL (≈ 9.41 µM).

`CC[C@H]1OC(=O)[C@H](C)[C@@H](O)[C@H](C)[C@@H](O[C@@H]2O[C@H](C)C[C@H](N(C)C)[C@H]2O)[C@](C)(O)C[C@@H](C)CN(CCCN(CCC#N)C(=S)NCCCc2ccccc2)[C@H](C)[C@@H](O)[C@]1(C)O`: the MIC is more than 64 µg/mL with Escherichia coli (setting [5]); 16 µg/mL (≈ 18.5 µM) in the assay on Streptococcus pneumoniae [1] (setting [6]); 64 µg/mL (≈ 74.1 µM) with Streptococcus pyogenes [2] (setting [7]); more than 64 µg/mL in the assay with Enterococcus faecalis; 32 µg/mL (≈ 37 µM) in the assay on Streptococcus pyogenes [3] (setting [7]); 8 µg/mL (≈ 9.26 µM) in the assay on Haemophilus influenzae (setting [8]). Further, the values for the MIC in the assay with Staphylococcus aureus (setting [9]) and in the assay on Moraxella catarrhalis were more than 64 µg/mL and 8 µg/mL (≈ 9.26 µM), respectively.

`CC[C@H]1OC(=O)[C@H](C)[C@@H](O)[C@H](C)[C@@H](O[C@@H]2O[C@H](C)C[C@H](N(C)C)[C@H]2O)[C@](C)(O)C[C@@H](C)CN(CCCNC(=O)NC(C)c2cccc3ccccc23)[C@H](C)[C@@H](O)[C@]1(C)O` (mixture of isomers): the MIC in the assay with Escherichia coli (setting [5]) is 16 µg/mL; with Streptococcus pneumoniae [1] (setting [6]) it was 16 µg/mL; in the assay with Streptococcus pyogenes [2] (setting [7]), 16 µg/mL; in the assay with Enterococcus faecalis it was 8 µg/mL; in the assay with Streptococcus pyogenes [3] (setting [7]), less than 0.125 µg/mL; with Haemophilus influenzae (setting [8]), 4 µg/mL. Also, the MIC with Streptococcus pneumoniae [4] (setting [6]) is less than 0.125 µg/mL; in the assay with Staphylococcus aureus (setting [9]), 16 µg/mL; with Moraxella catarrhalis, 4 µg/mL.

With `CC[C@H]1OC(=O)[C@H](C)[C@@H](O)[C@H](C)[C@@H](O[C@@H]2O[C@H](C)C[C@H](N(C)C)[C@H]2O)[C@](C)(O)C[C@@H](C)CN(CCCN(CCC#N)C(=O)NC(C)c2cccc3ccccc23)[C@H](C)[C@@H](O)[C@]1(C)O` (mixture of isomers), the MIC with Escherichia coli (setting [5]) is more than 64 µg/mL; with Streptococcus pneumoniae [1] (setting [6]) it was 8 µg/mL; in the assay on Streptococcus pyogenes [2] (setting [7]), more than 64 µg/mL; in the assay on Enterococcus faecalis, 64 µg/mL; in the assay on Streptococcus pyogenes [3] (setting [7]), 4 µg/mL; in the assay with Haemophilus influenzae (setting [8]), 16 µg/mL. In addition, the MIC in the assay on Streptococcus pneumoniae [4] (setting [6]) is 4 µg/mL; in the assay with Staphylococcus aureus (setting [9]), more than 64 µg/mL; in the assay on Moraxella catarrhalis, 4 µg/mL.

`CC[C@H]1OC(=O)[C@H](C)[C@@H](O[C@H]2C[C@@](C)(OC)[C@@H](O)[C@H](C)O2)[C@H](C)[C@@H](O[C@@H]2O[C@H](C)C[C@H](N(C)C)[C@H]2O)[C@](C)(O)C[C@@H](C)CN(C)[C@H](C)[C@@H](O)[C@]1(C)O` (stereo in doubt; 1) [AZITHROMYCIN]: the MIC in the assay on Escherichia coli was found to be 2 µg/mL (≈ 2.67 µM); with Streptococcus pneumoniae [1], 8 µg/mL (≈ 10.7 µM); in the assay with Streptococcus pyogenes [2] it was 4 µg/mL (≈ 5.34 µM); in the assay on Enterococcus faecalis, 8 µg/mL (≈ 10.7 µM); in the assay on Haemophilus influenzae, 1 µg/mL (≈ 1.34 µM); with Staphylococcus aureus it was 0.5 µg/mL (≈ 0.668 µM). In the assay on Moraxella catarrhalis, this compound displayed an MIC of less than 0.125 µg/mL.

Turning to `CC[C@H]1OC(=O)[C@H](C)[C@@H](O[C@H]2C[C@@](C)(OC)[C@@H](O)[C@H](C)O2)[C@H](C)[C@@H](O[C@@H]2O[C@H](C)C[C@H](N(C)C)[C@H]2O)[C@](C)(O)C[C@@H](C)CN(C)[C@H](C)[C@@H](O)[C@]1(C)O` (stereo in doubt; 2) [AZITHROMYCIN], the MIC against Escherichia coli is 16 µg/mL (≈ 21.4 µM); against Streptococcus pneumoniae [1] it was more than 64 µg/mL; against Streptococcus pyogenes [2], more than 64 µg/mL; against Streptococcus pyogenes [3] it was more than 64 µg/mL; in the assay with Haemophilus influenzae, 16 µg/mL (≈ 21.4 µM); against Streptococcus pneumoniae [4], more than 64 µg/mL. This compound also displayed an MIC in the assay on Staphylococcus aureus of more than 64 µg/mL.
